In patent publication US7053175B1, “Synthetic peptides useful in biological assays for detecting infections caused by group O HIV-1 viruses” (Bio-Rad Pasteur, priority 1997, dated 2006):
No end group written: not given here.

Test system: sera from patients infected with group O HIV-1 retroviruses
Experiment: Immunoenzymatic test: Test No. 1 (immunoreactivity of peptides coated on microplates)
Assay type: binding, human
Design: key to ABSORBANCE: >: signal greater than the reading capacity of the spectrophotometer
Conditions: for ABSORBANCE: cyclized peptide 2 μg/ml
Experimental: The sera used ESS, DUR, VAU and HAD are sera from French patients infected with group O HIV-1 retroviruses. The other serum samples from patients infected with group O HIV-1 retroviruses were obtained by the Yaoundé Pasteur Centre in Cameroon and were serotyped group O according to the serological algorithm described in AIDS (1977), 11, pp 445-453.
The HIV-negative sera (n=48) were obtained from healthy volunteers.
The synthetic peptides used were dissolved in water at a concentration of 1 mg/ml (stock solution). For the solid phase sensitization step (coating), 110 μl of a solution at 2 μg/ml of each peptide (obtained by diluting the stock solution with 0.1 M carbonate buffer solution) were added to each well of the microtitre plates Microtiter™ (NUNC). After incubating overnight at room temperature, the microplates were first washed with a Tris-NaCl buffer solution pH 7.4 containing 0.1% of Tween® 20 and 0.001% sodium merthiolate, and then saturated with a PBS solution containing 0.5% of Régilait™ (dried skimmed milk). After aspirating the saturating solution, the plates were heated for 10 min at 50° C.
The serum samples were diluted 1/5 with a skimmed milk solution (citrate buffer supplemented with 0.01% of phenol red, 0.25% of chloroform and 0.25% of Kathon®), deposited in the wells of the plates and incubated for 30 min at 40° C.
After washing with a Tris-NaCl buffer solution pH 7.4 containing 0.1% of Tween® 20 and 0.001% of sodium merthiolate, 100 μl of a solution of conjugate consisting of horseradish peroxidase-labelled anti-human IgG and IgM goat antibodies, containing as preservative 0.01% of sodium merthiolate, in solution in a citrate buffer solution supplemented with 30% glycerol and 25% normal foetal calf serum, were added to each plate well and then the plates were incubated for 30 min at 40° C.
After washing with a Tris-NaCl buffer solution pH 7.4 containing 0.1% of Tween® 20 and 0.001% of sodium merthiolate, the colour was developed by adding, to each well, 100 μl of O-phenylenediamine in solution in hydrogen peroxide. The microplates were then incubated for 30 min at room temperature and in the dark. The coloured reaction was then stopped by addition of 100 μl of 4N sulphuric acid. The absorbance (A) was determined at 490 and 620 nm.
The relative absorbance (A490-A620) read in each well is proportional to the immunoreactivity of each peptide. It indicates the ability of each peptide to react with the biological sample with which the test is carried out. The cut-off value was determined as being an absorbance equal to 0.15. It corresponds to the mean of the negative values (n=48) plus 12 standard deviations.
The reactivity of the peptides of the invention (peptide No. 3 (4B), peptide No. 2 (3B) and peptide No. 1 (2B), all in cyclized form), was compared with that of two synthetic peptides having, as sequence, a portion of the natural sequence of the envelope (env) of the VAU isolate (group O HIV-1 retrovirus) and comprising an immunodominant epitope of gp41.
For the study, these peptides were used in cyclized form.

For “LLNLWGCKNRAICYTSVKWNKT (cysteine pairing not given here) [VAU 22 AA, reference compound]”, the ABSORBANCE (serum 134) was “>”, the ABSORBANCE (serum 402) was “>” and the ABSORBANCE (serum 625) was “>”. For the same sequence, the ABSORBANCE (serum 1062) was “>”, the ABSORBANCE (serum 1105*) was 0.099 and the ABSORBANCE (serum 1581) was 1.112. The ABSORBANCE (serum 1702) was “>”, the ABSORBANCE (serum 1754) was 1.263 and the ABSORBANCE (serum 2294) was “>”. The ABSORBANCE (serum 2312) was “>”, the ABSORBANCE (serum 2313) was “>” and the ABSORBANCE (serum 2352) was “>”. For the same sequence, the ABSORBANCE (serum 2551) was “>”, the ABSORBANCE (serum 2700) was “>” and the ABSORBANCE (serum 3016) was “>”. For the same sequence, the ABSORBANCE (serum 3136) was “>”, the ABSORBANCE (serum 3235) was “>” and the ABSORBANCE (serum 3236) was “>”. For the same sequence, the ABSORBANCE (serum 3302) was “>”, the ABSORBANCE (serum 3482) was “>” and the ABSORBANCE (serum 3529) was “>”. The ABSORBANCE (serum 3600*) was “>”, the ABSORBANCE (serum 3627*) was “>” and the ABSORBANCE (serum 3637) was 0.779. For the same sequence, the ABSORBANCE (serum 3653) was 1.441, the ABSORBANCE (serum 3771) was “>” and the ABSORBANCE (serum 3884*) was “>”. The ABSORBANCE (serum 3891) was “>”, the ABSORBANCE (serum 3935) was 0.138 and the ABSORBANCE (serum 3945) was “>”. The ABSORBANCE (serum 4021*) was 0.050, the ABSORBANCE (serum 4288*) was 2.337 and the ABSORBANCE (serum 4364) was “>”. It also gave an ABSORBANCE (serum 4434) of 2.273, an ABSORBANCE (serum 4477) of 2.511 and an ABSORBANCE (serum 4489*) of 1.318. For the same sequence, the ABSORBANCE (serum 5149*) was “>”, the ABSORBANCE (serum 5164) was “>” and the ABSORBANCE (serum 5210) was “>”. The ABSORBANCE (serum 5270*) was “>”, the ABSORBANCE (serum 5373) was 1.359 and the ABSORBANCE (serum 5453) was 1.267. For the same sequence, the ABSORBANCE (serum 5766*) was “>”, the ABSORBANCE (serum 5931) was 0.202 and the ABSORBANCE (serum 5969*) was 2.491. The ABSORBANCE (serum 6111) was “>”, the ABSORBANCE (serum 6165) was “>” and the ABSORBANCE (serum 6198*) was “>”. For the same sequence, the ABSORBANCE (serum 6295*) was 0.972, the ABSORBANCE (serum 6487) was 2.889 and the ABSORBANCE (serum 6512*) was 0.120. The ABSORBANCE (serum 6627) was “>”, the ABSORBANCE (serum 6689*) was “>” and the ABSORBANCE (serum 6697) was “>”. The ABSORBANCE (serum 6782) was 2.190, the ABSORBANCE (serum 6891) was 0.359 and the ABSORBANCE (serum 6976*) was “>”. For the same sequence, the ABSORBANCE (serum 6998) was “>”, the ABSORBANCE (serum 7007) was “>” and the ABSORBANCE (serum 7120) was “>”. The ABSORBANCE (serum 7212) was “>”, the ABSORBANCE (serum 7258*) was “>” and the ABSORBANCE (serum 7297*) was “>”. For the same sequence, the ABSORBANCE (serum 7439) was “>”, the ABSORBANCE (serum 7443) was 0.920 and the ABSORBANCE (serum DUR*) was 0.118. The ABSORBANCE (serum ESS*) was “>”, the ABSORBANCE (serum HAD) was 0.789 and the ABSORBANCE (serum VAU*) was “>”.

“LLSLWGCRGKAVCYTSVQWNET [PEPTIDE No. 1 (2B)]” was tested, and the ABSORBANCE (serum 134) was “>”, the ABSORBANCE (serum 402) was “>” and the ABSORBANCE (serum 625) was “>”. For the same sequence, the ABSORBANCE (serum 1062) was “>”, the ABSORBANCE (serum 1105*) was “>” and the ABSORBANCE (serum 1581) was “>”. For the same sequence, the ABSORBANCE (serum 1702) was 1.162, the ABSORBANCE (serum 1754) was “>” and the ABSORBANCE (serum 2294) was 0.447. For the same sequence, the ABSORBANCE (serum 2312) was “>”, the ABSORBANCE (serum 2313) was “>” and the ABSORBANCE (serum 2352) was 0.205. For the same sequence, the ABSORBANCE (serum 2551) was “>”, the ABSORBANCE (serum 2700) was “>” and the ABSORBANCE (serum 3016) was 0.243. For the same sequence, the ABSORBANCE (serum 3136) was 0.302, the ABSORBANCE (serum 3235) was “>” and the ABSORBANCE (serum 3236) was “>”. For the same sequence, the ABSORBANCE (serum 3302) was 0.386, the ABSORBANCE (serum 3482) was 1.473 and the ABSORBANCE (serum 3529) was 1.803. For the same sequence, the ABSORBANCE (serum 3600*) was 2.743, the ABSORBANCE (serum 3627*) was 2.910 and the ABSORBANCE (serum 3637) was “>”. The ABSORBANCE (serum 3653) was 0.044, the ABSORBANCE (serum 3771) was 0.544 and the ABSORBANCE (serum 3884*) was 1.839. For the same sequence, the ABSORBANCE (serum 3891) was 2.780, the ABSORBANCE (serum 3935) was 0.307 and the ABSORBANCE (serum 3945) was “>”. The ABSORBANCE (serum 4021*) was “>”, the ABSORBANCE (serum 4288*) was 2.802 and the ABSORBANCE (serum 4364) was 1.382. For the same sequence, the ABSORBANCE (serum 4434) was “>”, the ABSORBANCE (serum 4477) was “>” and the ABSORBANCE (serum 4489*) was “>”. The ABSORBANCE (serum 5149*) was “>”, the ABSORBANCE (serum 5164) was “>” and the ABSORBANCE (serum 5210) was “>”. For the same sequence, the ABSORBANCE (serum 5270*) was “>”, the ABSORBANCE (serum 5373) was “>” and the ABSORBANCE (serum 5453) was “>”. The ABSORBANCE (serum 5766*) was “>”, the ABSORBANCE (serum 5931) was “>” and the ABSORBANCE (serum 5969*) was “>”. For the same sequence, the ABSORBANCE (serum 6111) was “>”, the ABSORBANCE (serum 6165) was 2.714 and the ABSORBANCE (serum 6198*) was “>”. The ABSORBANCE (serum 6295*) was “>”, the ABSORBANCE (serum 6487) was 2.687 and the ABSORBANCE (serum 6512*) was “>”. The ABSORBANCE (serum 6627) was “>”, the ABSORBANCE (serum 6689*) was “>” and the ABSORBANCE (serum 6697) was “>”. The ABSORBANCE (serum 6782) was 2.462, the ABSORBANCE (serum 6891) was 0.062 and the ABSORBANCE (serum 6976*) was “>”. For the same sequence, the ABSORBANCE (serum 6998) was “>”, the ABSORBANCE (serum 7007) was “>” and the ABSORBANCE (serum 7120) was “>”. For the same sequence, the ABSORBANCE (serum 7212) was “>”, the ABSORBANCE (serum 7258*) was 2.477 and the ABSORBANCE (serum 7297*) was “>”. For the same sequence, the ABSORBANCE (serum 7439) was “>”, the ABSORBANCE (serum 7443) was “>” and the ABSORBANCE (serum DUR*) was “>”. The ABSORBANCE (serum ESS*) was 2.494, the ABSORBANCE (serum HAD) was 0.041 and the ABSORBANCE (serum VAU*) was “>”. For the same sequence, the “immunoreactivity compared with the other peptides (in words)” value (summary of Table IV) was “more immunoreactive than the VAU 22 AA peptide”.
